From patent publication US20260152487A1 (Sitryx Therapeutics Limited, priority 2021, published 2026) come the findings set out here.

For this experiment, the target named is T1, recombinant human PKM2 (Homo sapiens, UniProt P14618).
T1 construct: His (N); purchased R&D Systems
The experiment in a line: Human PKM2 activation assay (Kinase-Glo Plus luminescent detection of generated ATP). Format: biochemical. The conditions noted are these: for Emax: percentage activation normalised to DMSO vehicle (LOW) and 5 μM TEPP-46 (HIGH), read-out: hPKM2 Emax; for pEC50: recombinant human PKM2 activation, 4-parameter logistic fit, read-out: hPKM2 EC50. The method, then: Compound activation of recombinant human PKM2 pyruvate kinase activity was determined by biochemical assay. N-terminal His-tagged hPKM2 was sourced from R&D Systems and its substrates phosphoenolpyruvate (PEP) and ADP from Sigma-Aldrich and 2Bscientific Ltd, respectively. The Kinase-Glo® Plus luminescence assay was from Promega. All other reagents were from Sigma-Aldrich. Test Compounds were prepared as 10 mM DMSO stocks and dilution series prepared in DMSO for direct dilution into Assay Buffer comprising 50 mM imidazole, 50 mM KCl, 7 mM MgCl2, 0.01% Tween20, 0.05% BSA (pH 7.2).
Human PKM2 was diluted into Assay Buffer comprising 50 mM imidazole, 50 mM KCl, 7 mM MgCl2, 0.01% Tween20, 0.05% BSA (pH 7.2) to a final concentration of […]. Enzyme-Assay Buffer mix was dispensed into a 384-well shallow-well white-walled plate (PerkinElmer) and Test Compounds added by acoustic dispense (Echo®, Labcyte Inc.).
After 60 minutes' incubation on an orbital shaker (300 rpm, 26° C.), enzyme activity was quantified by the luminescent detection of generated ATP. Kinase-Glo® Plus reagent was added to each well and the plates incubated for a further 15 minutes on an orbital shaker in the dark (300 rpm, 26° C.) before luminescence measurement on a plate reader (PHERAstar® FSX, BMG Labtech).
Percentage activation was calculated by normalising […] signals to plate LOW (DMSO vehicle) and HIGH (5 μM TEPP-46) controls. EC50 and Emax values were determined from 4-parameter logistic fits of compound concentration-response curves.

pEC50: −log10 of the molar value.

T1 sequence (P14618 2-531 limits assumed): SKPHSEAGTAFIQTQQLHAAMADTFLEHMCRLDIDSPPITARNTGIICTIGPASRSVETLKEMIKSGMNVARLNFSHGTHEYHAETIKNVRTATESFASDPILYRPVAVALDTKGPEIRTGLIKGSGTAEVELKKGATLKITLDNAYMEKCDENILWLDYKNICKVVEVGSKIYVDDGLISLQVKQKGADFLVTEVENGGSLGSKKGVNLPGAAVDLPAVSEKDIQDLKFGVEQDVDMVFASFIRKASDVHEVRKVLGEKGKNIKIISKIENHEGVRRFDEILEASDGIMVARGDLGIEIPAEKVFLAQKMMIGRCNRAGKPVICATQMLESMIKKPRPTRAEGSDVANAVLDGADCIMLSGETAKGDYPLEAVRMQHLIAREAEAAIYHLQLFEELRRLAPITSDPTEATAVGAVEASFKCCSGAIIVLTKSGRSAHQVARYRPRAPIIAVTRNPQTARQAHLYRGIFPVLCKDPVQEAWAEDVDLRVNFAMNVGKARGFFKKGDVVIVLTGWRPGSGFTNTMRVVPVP

What is called Emax is the greatest response seen or fitted, relative to the assay's reference. One may read the pEC50 as the negative decadic logarithm of the EC50, by convention in mol/L. With `COc1cnc(Cn2ncc3cc(S(=O)(=O)c4ccccc4)ccc3c2=O)cn1` [Example 87, 2-((5-methoxypyrazin-2-yl)methyl)-6-(phenylsulfonyl)phthalazin-1(2H)-one], the maximal response (Emax) was 85.8% and the pEC50 is 6.32.
Taken in the same sequence, the figures for `COc1ncccc1Cn1ncc2cc(S(=O)(=O)c3ccccc3)ccc2c1=O` [Example 88, 2-((2-methoxypyridin-3-yl)methyl)-6-(phenylsulfonyl)phthalazin-1(2H)-one] were 93.2% and 6.21.
Taken in the same sequence, the figures for `NC(=O)c1c(Cl)cccc1Cn1ncc2cc(S(=O)(=O)c3ccccc3)ccc2c1=O` [Example 91, 2-chloro-6-((1-oxo-6-(phenylsulfonyl)phthalazin-2(1H)-yl)methyl)benzamide] were 89.9% and 6.26.
Taken in the same sequence, the figures for `COc1cccc(Cn2ncc3cc(S(=O)(=O)c4ccccc4)ccc3c2=O)c1C(N)=O` [Example 92, 2-methoxy-6-((1-oxo-6-(phenylsulfonyl)phthalazin-2(1H)-yl)methyl)benzamide] were 98.9% and 6.80.
Regarding `NC(=O)c1nc(Cn2ncc3cc(S(=O)(=O)c4ccccc4)ccc3c2=O)cs1` [Example 93, 4-((1-oxo-6-(phenylsulfonyl)phthalazin-2(1H)-yl)methyl)thiazole-2-carboxamide], the Emax came to 108% and the pEC50 is 6.39.
As for `Cc1onc(C(N)=O)c1Cn1ncc2cc(S(=O)(=O)c3ccccc3)ccc2c1=O` [Example 94, 5-methyl-4-((1-oxo-6-(phenylsulfonyl)phthalazin-2(1H)-yl)methyl) isoxazole-3-carboxamide], the Emax came to 71.3% and the pEC50 was 6.23.
Taken in the same sequence, the figures for `Cc1cc(Cn2ncc3cc(S(=O)(=O)c4ccccc4)ccc3c2=O)sn1` [Example 97, 2-((3-methylisothiazol-5-yl)methyl)-6-(phenylsulfonyl)phthalazin-1(2H)-one] were 99.1% and 6.15.
Regarding `COc1ccc(S(=O)(=O)c2ccc3c(=O)n(Cc4ccncc4O)ncc3c2)cc1` [Example 105, 2-((3-hydroxypyridin-4-yl)methyl)-6-(4-methoxyphenylsulfonyl)phthalazin-1(2H)-one], the Emax came out at 103% and the pEC50 was 6.09.
In the case of `COc1ccc(S(=O)(=O)c2ccc3c(=O)n(Cc4cnccc4O)ncc3c2)cc1` [Example 107, 2-((4-hydroxypyridin-3-yl)methyl)-6-(4-methoxyphenylsulfonyl)phthalazin-1(2H)-one], the Emax worked out at 103% and the pEC50 is 6.23.
For `COc1ccc(S(=O)(=O)c2ccc3c(=O)n(Cc4ccc(OC)nc4O)ncc3c2)cc1` [Example 109, 2-((2-hydroxy-6-methoxypyridin-3-yl)methyl)-6-(4-methoxyphenylsulfonyl)phthalazin-1(2H)-one] the same measures were 96.5% and 6.85.
Taken in the same sequence, the figures for `O=c1c2ccc(S(=O)(=O)c3ccccc3)cc2cnn1Cc1cc(F)[nH]n1` [Example 111, 2-((5-fluoro-1H-pyrazol-3-yl)methyl)-6-(phenylsulfonyl)phthalazin-1(2H)-one] were 124% and 6.61.
Regarding `COc1ccc(S(=O)(=O)c2ccc3c(=O)n(Cc4cc(C(F)(F)F)no4)ncc3c2)cc1` [Example 112, 6-(4-methoxyphenylsulfonyl)-2-((3-(trifluoromethyl)isoxazol-5-yl)methyl)phthalazin-1(2H)-one], the Emax is 66.4% and the pEC50 was 7.67.
Taken in the same sequence, the figures for `Nc1cccc(Cn2ncc3cc(S(=O)(=O)c4cccc5cccnc45)ccc3c2=O)c1` [Example 114, 2-(3-aminobenzyl)-6-(quinolin-8-ylsulfonyl)phthalazin-1(2H)-one] were 97.1% and 6.68.
Taken in the same sequence, the figures for `COc1ccc(Cn2ncc3cc(S(=O)(=O)c4ccc(C)cn4)ccc3c2=O)cn1` [Example 115, 2-((6-methoxypyridin-3-yl)methyl)-6-(5-methylpyridin-2-ylsulfonyl)phthalazin-1(2H)-one] were 69.8% and 6.56.
